Data set [1] has as its target T1, Carbonic anhydrase 9 (Homo sapiens, UniProt Q16790). Description: Inhibition of human carbonic anhydrase 9 using 4-NPA as substrate after 3 mins by spectrophotometric analysis.
The test system of data set [2] is HEK293. As to the kind of experiment: Cytotoxicity against human HEK293 cells after 48 hrs by MTT assay. The format is cell-based. The following applies: HEK293, 48 h.
The subject of data set [3] is MCF7. As to the kind of experiment: Cytotoxicity against human MCF7 cells after 48 hrs by MTT assay. The format is functional, cell-based. As to conditions: MCF7, 48 h.
Data set [4] can be described thus: Ratio of IC50 for HEK293 cells to IC50 for human MCF7 cells. The format is toxicity. The following applies: HEK293 cells versus MCF7 cells, read-out: Ratio IC50.
Data set [5] in a line: Ratio of IC50 for HEK293 cells to IC50 for human HepG2 cells. As to conditions: HEK293 cells versus HepG2 cells, read-out: Ratio IC50. The format is toxicity.
The test system of data set [6] is HepG2. As to the kind of experiment: cells. The following applies: Homo sapiens, HepG2, 48 h.
Description: Cytotoxicity against human HepG2 cells after 48 hrs by MTT assay
Data set [7] deals with Carbonic anhydrase 2 (Homo sapiens, UniProt P00918). As to the kind of experiment: Inhibition of human carbonic anhydrase 2 using 4-NPA as substrate after 3 mins by spectrophotometric analysis.
The target in data set [8] is T1, Carbonic anhydrase 9. Description: Binding affinity to human carbonic anhydrase 9 by spectrofluorimetric analysis.

With `Cc1ccc(/C=C2/S/C(=N/c3ccccc3)N(Cc3ccncc3)C2=O)cc1`, the IC50 in data set [1] came out at 57.3 µM; in data set [2], 49.5 µM; in data set [3] it was 36.9 µM; in data set [6] it was 19.7 µM. The selectivity ratio in data set [4] was found to be 1.3; in data set [5], 2.5.
`CC(C)c1ccc(/C=C2/S/C(=N/c3ccccc3)N(Cc3ccncc3)C2=O)cc1`: the IC50 in data set [1] was determined as 63.1 µM; in data set [2], 137 µM; in data set [3] it was 53.3 µM; in data set [6], 32.3 µM. The values for the selectivity ratio in data set [4] and in data set [5] were 2.5 and 4.2, respectively.
In the case of `O=C1/C(=C\c2ccc(O)c(O)c2)S/C(=N/c2ccccc2)N1Cc1ccncc1`, the IC50 turned out to be 1.84 µM in data set [1]; 27.2 µM in data set [7]; 2.32 µM in data set [8]; 230 µM in data set [2]; 12.4 µM in data set [3]; 16.2 µM in data set [6]. In addition, the selectivity ratio in data set [4] came to 18.5; in data set [5] it was 14.2.
Turning to `O=C1/C(=C\c2cccc(O)c2)S/C(=N/c2ccccc2)N1Cc1ccncc1`, the IC50 came out at 10.8 µM in data set [1], 150 µM in data set [2], 43.6 µM in data set [3] and 17.6 µM in data set [6]. Moreover, the selectivity ratio was 3.4 in data set [4] and 8.5 in data set [5].
In the case of `COc1ccc(/C=C2/S/C(=N/c3ccccc3)N(Cc3ccncc3)C2=O)cc1OC`, the IC50 was determined as 20.9 µM in data set [1], 171 µM in data set [2], 80.7 µM in data set [3] and 28.9 µM in data set [6]. For the same molecule, the selectivity ratio in data set [4] is 2.1; in data set [5] it was 5.9.
In the case of `O=C1/C(=C\c2ccccn2)S/C(=N/c2ccccc2)N1Cc1ccncc1`, the IC50 in data set [1] was determined as 6.64 µM; in data set [2], 161 µM; in data set [3], 21.1 µM; in data set [6], 31 µM. The values for the selectivity ratio in data set [4] and in data set [5] were 7.6 and 5.2, respectively.
Regarding `O=C1/C(=C\c2ccc3c(c2)OCO3)S/C(=N/c2ccccc2)N1Cc1ccncc1`, the IC50 was 58.4 µM in data set [1], 64.8 µM in data set [2], 35.2 µM in data set [3] and 24.4 µM in data set [6]. Besides, the values for the selectivity ratio in data set [4] and in data set [5] were 1.8 and 2.6, respectively.
With `O=C1/C(=C\c2ccc(O)cc2)S/C(=N/c2ccccc2)N1Cc1ccncc1`, the IC50 in data set [1] was 6.72 µM; in data set [2], 142 µM; in data set [3], 18.9 µM; in data set [6] it was 11.8 µM. Further, the selectivity ratio in data set [4] amounted to 7.5; in data set [5] it was 12.
Consider `COc1cc(/C=C2/S/C(=N/c3ccccc3)N(Cc3ccncc3)C2=O)ccc1O`, for which the IC50 in data set [1] was determined as 60.9 µM; in data set [2], 67.4 µM; in data set [3] it was 28 µM; in data set [6] it was 28.6 µM. Besides, the selectivity ratio in data set [4] worked out at 2.4; in data set [5], 2.3.
Turning to `CCOc1cc(/C=C2/S/C(=N/c3ccccc3)N(Cc3ccncc3)C2=O)ccc1O`, the IC50 in data set [1] came out at 38.4 µM; in data set [2], 46.5 µM; in data set [3], 20.1 µM; in data set [6], 20.4 µM. In addition, the figures for the selectivity ratio in data set [4] and in data set [5] were 2.3 and 2.2, respectively.
Turning to `S=C(NCc1ccncc1)Nc1ccccc1`, the IC50 in data set [1] was determined as 17.9 µM; in data set [2], 47.2 µM; in data set [3] it was 37.3 µM; in data set [6] it was 19.3 µM. Also, the selectivity ratio in data set [4] was found to be 1.2; in data set [5], 2.4.
For `CN(C)c1ccc(/C=C2/S/C(=N/c3ccccc3)N(Cc3ccncc3)C2=O)cc1`, the IC50 was found to be 32.9 µM in data set [1], 122 µM in data set [2], 76.3 µM in data set [3] and 52.6 µM in data set [6]. Also, the values for the selectivity ratio in data set [4] and in data set [5] were 1.6 and 2.3, respectively.
As for `COc1cccc2c1C(=O)c1c(O)c3c(c(O)c1C2=O)C[C@@](O)(C(=O)CO)C[C@@H]3O[C@H]1C[C@H](N)[C@H](O)[C@H](C)O1` [DOXORUBICIN], in data set [2], the IC50 was found to be 148 µM.
Take `COc1ccc(OC)c(/C=C2/S/C(=N/c3ccccc3)N(Cc3ccncc3)C2=O)c1`: the IC50 in data set [1] came out at 16.7 µM; in data set [2], 80.1 µM; in data set [3], 37 µM; in data set [6], 35.8 µM. Besides, the figures for the selectivity ratio in data set [4] and in data set [5] were 2.1 and 2.2, respectively.
For `O=C1CS/C(=N/c2ccccc2)N1Cc1ccncc1`, the IC50 in data set [1] is 26.1 µM; in data set [2], 99.5 µM; in data set [3], 65.8 µM; in data set [6], 26 µM. The selectivity ratio turned out to be 1.5 in data set [4] and 3.8 in data set [5].
For `O=C1/C(=C\c2ccc(Cl)cc2)S/C(=N/c2ccccc2)N1Cc1ccncc1`, the IC50 in data set [1] was determined as 40.2 µM; in data set [2], 42.3 µM; in data set [3], 54.9 µM; in data set [6], 28.8 µM. The selectivity ratio in data set [4] was 1.1; in data set [5], 1.4.
For `Cc1ccc(/C=C2/S/C(=N/c3ccccc3)N(Cc3ccncc3)C2=O)s1`, the IC50 in data set [1] is 10 µM; in data set [2], 146 µM; in data set [3] it was 28.7 µM; in data set [6], 23.1 µM. Moreover, the results for the selectivity ratio in data set [4] and in data set [5] were 5.1 and 6.3, respectively.
Regarding `O=C1/C(=C\c2cccc(Cl)c2)S/C(=N/c2ccccc2)N1Cc1ccncc1`, the IC50 is 43.5 µM in data set [1], 71.8 µM in data set [2], 29.8 µM in data set [3] and 28.9 µM in data set [6]. In addition, the selectivity ratio in data set [4] and in data set [5] was 2.4 each time.
For the molecule `COc1ccc(/C=C2/S/C(=N/c3ccccc3)N(Cc3ccncc3)C2=O)cc1`, the IC50 stood at 40.4 µM in data set [1], 47.9 µM in data set [2], 31.5 µM in data set [3] and 19.1 µM in data set [6]. In addition, the selectivity ratio in data set [4] turned out to be 1.5; in data set [5] it was 2.5.
`O=C1/C(=C\c2ccccc2)S/C(=N/c2ccccc2)N1Cc1ccncc1`: the IC50 is 50.9 µM in data set [1], 64.7 µM in data set [2], 26.4 µM in data set [3] and 25.2 µM in data set [6]. Besides, the selectivity ratio was found to be 2.4 in data set [4] and 2.5 in data set [5].
As for `O=C1/C(=C\c2ccc([N+](=O)[O-])cc2)S/C(=N/c2ccccc2)N1Cc1ccncc1`, the IC50 was 1.61 µM in data set [1]; 14.4 µM in data set [7]; 11.2 µM in data set [8]; 250 µM in data set [2]; 13 µM in data set [3]; 18.9 µM in data set [6]. For the same molecule, the selectivity ratio in data set [4] came out at 19.2; in data set [5], 13.2.

As a reminder, the IC50 is the concentration at which inhibition is half-maximal. A lower IC50 goes with inhibition by little substance.

These data come from ChEMBL document CHEMBL4145457, “Design, synthesis and biological evaluation of novel pyridine-thiazolidinone derivatives as anticancer agents: Targeting human carbonic anhydrase IX” (Eur J Med Chem, 2018).
